Assay results from patent publication US10870647B2, “Imidazopyridine derivative, method for preparing same, and pharmaceutical composition containing same as active ingredient for preventing or treating cancer” (DAEGU-GYEONGBUK MEDICAL INNOVATION FOUNDATION, priority 2016, dated 2020).

Key:
Assay in all cases: Kinase selectivity, scanMAX Kinase assay panel (DiscoverX), % control at 1 uM
Format in all cases: binding
[1] = biological target: T1, scanMAX Kinase assay panel (Homo sapiens, UniProt P09619); conditions: PDGFRB; 1 uM; read-out: Percent Control (%)
T1 construct: purchased DiscoverX
T1 sequence (P09619 33-1106): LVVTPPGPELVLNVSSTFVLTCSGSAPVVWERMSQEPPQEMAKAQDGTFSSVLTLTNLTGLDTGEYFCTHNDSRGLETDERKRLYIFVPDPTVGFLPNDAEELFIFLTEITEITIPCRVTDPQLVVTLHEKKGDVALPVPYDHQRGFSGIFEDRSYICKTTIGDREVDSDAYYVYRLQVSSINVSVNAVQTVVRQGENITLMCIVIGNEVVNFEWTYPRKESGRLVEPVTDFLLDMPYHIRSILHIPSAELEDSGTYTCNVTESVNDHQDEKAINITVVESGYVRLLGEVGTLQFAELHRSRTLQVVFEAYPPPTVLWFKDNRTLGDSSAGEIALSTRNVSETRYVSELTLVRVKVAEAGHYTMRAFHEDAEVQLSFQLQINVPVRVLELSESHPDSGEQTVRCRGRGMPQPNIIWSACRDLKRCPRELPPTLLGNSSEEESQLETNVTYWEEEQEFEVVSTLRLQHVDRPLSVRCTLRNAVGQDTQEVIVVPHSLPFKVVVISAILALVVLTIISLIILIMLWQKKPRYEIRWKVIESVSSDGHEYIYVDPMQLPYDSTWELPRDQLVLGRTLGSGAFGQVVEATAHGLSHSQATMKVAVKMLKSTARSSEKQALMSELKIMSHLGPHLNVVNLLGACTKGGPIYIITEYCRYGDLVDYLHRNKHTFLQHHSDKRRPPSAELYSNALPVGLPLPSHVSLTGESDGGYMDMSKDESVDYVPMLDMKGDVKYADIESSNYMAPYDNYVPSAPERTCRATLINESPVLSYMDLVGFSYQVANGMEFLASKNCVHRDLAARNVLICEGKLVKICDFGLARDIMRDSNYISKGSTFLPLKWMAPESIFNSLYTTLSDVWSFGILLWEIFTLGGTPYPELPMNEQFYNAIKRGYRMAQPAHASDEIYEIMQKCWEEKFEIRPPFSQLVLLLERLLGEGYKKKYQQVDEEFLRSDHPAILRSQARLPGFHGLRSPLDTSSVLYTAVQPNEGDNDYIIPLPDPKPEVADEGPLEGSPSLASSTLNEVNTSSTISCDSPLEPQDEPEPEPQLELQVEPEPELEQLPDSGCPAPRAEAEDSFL
Summary of the method: (§1)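 Compounds were tested at 1 uM in DMSO against each enzyme in the panel. Percent control was calculated as (compound − positive control)/(negative control − positive control) × 100, and a compound was scored active on a kinase when this value fell below 35.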

[2] = biological target: T2, scanMAX Kinase assay panel (Homo sapiens, UniProt P52564); conditions: MEK6; 1 uM; read-out: Percent Control (%)
T2 construct: purchased DiscoverX
T2 sequence (P52564 1-334): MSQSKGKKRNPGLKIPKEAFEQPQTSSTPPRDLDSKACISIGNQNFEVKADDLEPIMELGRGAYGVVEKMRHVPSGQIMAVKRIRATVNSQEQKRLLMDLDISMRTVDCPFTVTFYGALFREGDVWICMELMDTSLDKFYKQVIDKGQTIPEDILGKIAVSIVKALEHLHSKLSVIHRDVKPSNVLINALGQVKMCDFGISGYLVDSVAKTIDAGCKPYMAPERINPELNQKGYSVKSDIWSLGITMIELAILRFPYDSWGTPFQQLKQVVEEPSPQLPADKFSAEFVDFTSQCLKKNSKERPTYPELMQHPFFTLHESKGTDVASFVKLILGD
Summary of the method: as §1

[3] = biological target: T3, scanMAX Kinase assay panel (Homo sapiens, UniProt Q13177); conditions: PAK2; 1 uM; read-out: Percent Control (%)
T3 construct: purchased DiscoverX
T3 sequence (Q13177 whole entry): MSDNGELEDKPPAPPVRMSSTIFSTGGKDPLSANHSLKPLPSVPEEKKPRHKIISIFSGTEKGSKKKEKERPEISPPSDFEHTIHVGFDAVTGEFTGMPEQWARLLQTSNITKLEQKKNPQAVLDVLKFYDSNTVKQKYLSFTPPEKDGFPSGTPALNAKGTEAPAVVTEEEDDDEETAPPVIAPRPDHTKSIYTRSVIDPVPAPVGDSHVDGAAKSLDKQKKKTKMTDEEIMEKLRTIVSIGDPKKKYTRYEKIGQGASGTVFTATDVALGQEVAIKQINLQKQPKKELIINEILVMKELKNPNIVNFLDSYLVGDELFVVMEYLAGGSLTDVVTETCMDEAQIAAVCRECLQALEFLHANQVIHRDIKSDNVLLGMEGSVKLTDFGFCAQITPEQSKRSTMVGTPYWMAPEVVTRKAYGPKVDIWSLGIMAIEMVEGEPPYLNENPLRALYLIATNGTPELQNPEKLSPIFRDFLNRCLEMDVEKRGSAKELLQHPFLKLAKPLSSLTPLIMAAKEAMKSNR
Summary of the method: as §1

[4] = biological target: T4, scanMAX Kinase assay panel (Homo sapiens, UniProt Q13523); conditions: PRP4; 1 uM; read-out: Percent Control (%)
T4 construct: purchased DiscoverX
T4 sequence (Q13523 whole entry): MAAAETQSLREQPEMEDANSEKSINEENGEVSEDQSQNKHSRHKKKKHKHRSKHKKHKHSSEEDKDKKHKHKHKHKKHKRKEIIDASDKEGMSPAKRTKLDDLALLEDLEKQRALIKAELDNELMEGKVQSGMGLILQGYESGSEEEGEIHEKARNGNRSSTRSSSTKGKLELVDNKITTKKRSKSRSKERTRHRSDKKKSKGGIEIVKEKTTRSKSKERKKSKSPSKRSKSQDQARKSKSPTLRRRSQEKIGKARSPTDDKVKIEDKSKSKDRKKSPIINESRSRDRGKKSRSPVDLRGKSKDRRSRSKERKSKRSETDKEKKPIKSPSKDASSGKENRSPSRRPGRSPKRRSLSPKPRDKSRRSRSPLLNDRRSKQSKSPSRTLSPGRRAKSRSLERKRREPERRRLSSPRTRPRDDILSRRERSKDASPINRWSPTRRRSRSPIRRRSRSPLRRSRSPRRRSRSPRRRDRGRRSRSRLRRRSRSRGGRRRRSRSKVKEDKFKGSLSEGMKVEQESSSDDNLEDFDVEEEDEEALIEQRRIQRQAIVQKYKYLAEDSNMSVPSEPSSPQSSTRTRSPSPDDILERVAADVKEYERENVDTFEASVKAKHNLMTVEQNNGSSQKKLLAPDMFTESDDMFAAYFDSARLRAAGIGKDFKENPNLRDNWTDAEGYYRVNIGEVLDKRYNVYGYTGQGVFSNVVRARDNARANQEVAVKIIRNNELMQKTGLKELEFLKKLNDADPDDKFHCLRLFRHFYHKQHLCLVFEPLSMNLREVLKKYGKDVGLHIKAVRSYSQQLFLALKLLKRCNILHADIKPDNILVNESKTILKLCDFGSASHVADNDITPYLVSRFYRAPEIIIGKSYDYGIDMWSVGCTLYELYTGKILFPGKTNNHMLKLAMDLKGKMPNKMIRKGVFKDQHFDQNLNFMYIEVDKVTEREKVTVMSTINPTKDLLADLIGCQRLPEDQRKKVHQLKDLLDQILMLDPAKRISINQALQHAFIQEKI
Summary of the method: as §1

[5] = biological target: T5, scanMAX Kinase assay panel (Homo sapiens, UniProt Q15831); conditions: LKB1; 1 uM; read-out: Percent Control (%)
T5 construct: purchased DiscoverX
T5 sequence (Q15831 1-433): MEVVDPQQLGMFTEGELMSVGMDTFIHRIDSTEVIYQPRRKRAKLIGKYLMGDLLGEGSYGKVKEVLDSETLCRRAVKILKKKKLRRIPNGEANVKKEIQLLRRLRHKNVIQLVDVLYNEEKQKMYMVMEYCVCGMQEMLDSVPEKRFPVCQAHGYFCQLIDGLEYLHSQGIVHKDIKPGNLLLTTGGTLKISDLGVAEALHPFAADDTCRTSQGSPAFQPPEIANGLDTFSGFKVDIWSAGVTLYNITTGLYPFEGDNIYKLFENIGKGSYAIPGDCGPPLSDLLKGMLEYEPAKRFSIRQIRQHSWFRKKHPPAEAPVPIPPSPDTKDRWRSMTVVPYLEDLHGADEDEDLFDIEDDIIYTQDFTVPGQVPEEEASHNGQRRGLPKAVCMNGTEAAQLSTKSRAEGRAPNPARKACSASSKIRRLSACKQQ
Summary of the method: as §1

[6] = biological target: T6, scanMAX Kinase assay panel (Homo sapiens, UniProt Q9H2G2); conditions: SLK; 1 uM; read-out: Percent Control (%)
T6 construct: purchased DiscoverX
T6 sequence (Q9H2G2 whole entry): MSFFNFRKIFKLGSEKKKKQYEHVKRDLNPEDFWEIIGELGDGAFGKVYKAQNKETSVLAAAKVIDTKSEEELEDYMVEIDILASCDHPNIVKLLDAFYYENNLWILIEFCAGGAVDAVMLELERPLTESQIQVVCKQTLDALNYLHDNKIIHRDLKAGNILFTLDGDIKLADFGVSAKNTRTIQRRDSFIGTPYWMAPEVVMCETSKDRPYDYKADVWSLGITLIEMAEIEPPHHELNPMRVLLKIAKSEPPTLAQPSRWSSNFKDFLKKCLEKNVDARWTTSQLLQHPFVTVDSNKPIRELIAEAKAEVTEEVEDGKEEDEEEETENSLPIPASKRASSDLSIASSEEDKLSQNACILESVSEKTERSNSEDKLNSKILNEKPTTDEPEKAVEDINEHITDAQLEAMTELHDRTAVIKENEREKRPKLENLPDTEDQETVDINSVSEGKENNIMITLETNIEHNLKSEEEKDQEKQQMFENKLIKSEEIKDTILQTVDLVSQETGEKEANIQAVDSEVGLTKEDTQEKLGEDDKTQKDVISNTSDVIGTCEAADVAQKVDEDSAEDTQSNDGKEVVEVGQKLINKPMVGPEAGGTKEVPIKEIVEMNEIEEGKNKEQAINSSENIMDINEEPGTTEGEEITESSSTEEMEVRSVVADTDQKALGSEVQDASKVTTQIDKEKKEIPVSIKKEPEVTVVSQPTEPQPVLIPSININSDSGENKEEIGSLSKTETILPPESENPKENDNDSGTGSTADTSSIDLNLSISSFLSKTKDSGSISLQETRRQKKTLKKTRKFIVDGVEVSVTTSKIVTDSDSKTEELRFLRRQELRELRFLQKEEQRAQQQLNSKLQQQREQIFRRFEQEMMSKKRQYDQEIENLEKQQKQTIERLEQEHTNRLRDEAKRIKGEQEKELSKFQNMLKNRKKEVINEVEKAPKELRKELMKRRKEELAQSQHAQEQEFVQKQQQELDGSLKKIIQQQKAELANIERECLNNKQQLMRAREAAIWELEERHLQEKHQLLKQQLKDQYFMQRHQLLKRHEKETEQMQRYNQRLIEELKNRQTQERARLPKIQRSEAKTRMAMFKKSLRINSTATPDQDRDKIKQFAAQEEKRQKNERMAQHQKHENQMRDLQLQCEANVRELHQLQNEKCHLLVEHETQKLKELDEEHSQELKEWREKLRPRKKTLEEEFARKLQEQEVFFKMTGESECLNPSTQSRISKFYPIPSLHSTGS
Summary of the method: as §1

[7] = biological target: T7, scanMAX Kinase assay panel (Homo sapiens, UniProt Q9UKI8); conditions: TLK1; 1 uM; read-out: Percent Control (%)
T7 construct: purchased DiscoverX
T7 sequence (Q9UKI8 1-766): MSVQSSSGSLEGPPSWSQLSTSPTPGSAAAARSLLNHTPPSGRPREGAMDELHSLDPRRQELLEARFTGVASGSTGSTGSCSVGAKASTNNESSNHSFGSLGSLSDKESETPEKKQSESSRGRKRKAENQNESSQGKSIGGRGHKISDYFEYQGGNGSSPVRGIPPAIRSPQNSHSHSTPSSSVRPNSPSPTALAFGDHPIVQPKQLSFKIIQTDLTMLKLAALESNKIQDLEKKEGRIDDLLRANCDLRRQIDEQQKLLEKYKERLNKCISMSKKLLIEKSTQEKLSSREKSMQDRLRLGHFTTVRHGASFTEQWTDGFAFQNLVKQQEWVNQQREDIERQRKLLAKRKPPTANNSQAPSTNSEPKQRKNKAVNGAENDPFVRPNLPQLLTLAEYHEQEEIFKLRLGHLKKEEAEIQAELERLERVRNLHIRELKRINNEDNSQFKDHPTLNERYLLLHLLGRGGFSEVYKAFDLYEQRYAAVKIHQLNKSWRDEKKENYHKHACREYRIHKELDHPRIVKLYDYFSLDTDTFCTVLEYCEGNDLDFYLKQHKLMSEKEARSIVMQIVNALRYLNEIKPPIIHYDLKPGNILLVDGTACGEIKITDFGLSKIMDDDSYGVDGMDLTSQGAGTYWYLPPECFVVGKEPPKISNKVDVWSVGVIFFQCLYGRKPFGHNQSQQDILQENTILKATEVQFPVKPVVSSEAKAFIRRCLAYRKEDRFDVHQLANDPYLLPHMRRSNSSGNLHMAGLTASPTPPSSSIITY
Summary of the method: as §1

[8] = biological target: T8, scanMAX Kinase assay panel (Plasmodium falciparum, UniProt P61075); conditions: PFPK5 (P. falciparum); 1 uM; read-out: Percent Control (%)
T8 construct: purchased DiscoverX
T8 sequence (P61075 whole entry): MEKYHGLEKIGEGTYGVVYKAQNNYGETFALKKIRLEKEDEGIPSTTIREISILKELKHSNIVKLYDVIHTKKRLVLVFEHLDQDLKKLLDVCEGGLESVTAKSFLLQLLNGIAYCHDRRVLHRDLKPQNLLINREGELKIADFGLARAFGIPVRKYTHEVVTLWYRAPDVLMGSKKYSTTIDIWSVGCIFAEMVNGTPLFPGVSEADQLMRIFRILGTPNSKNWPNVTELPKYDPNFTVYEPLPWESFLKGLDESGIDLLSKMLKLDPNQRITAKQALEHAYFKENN
Summary of the method: as §1

SMILES | remaining binding at 1 µM [1] [%] | remaining binding at 1 µM [2] [%] | remaining binding at 1 µM [3] [%] | remaining binding at 1 µM [4] [%] | remaining binding at 1 µM [5] [%] | remaining binding at 1 µM [6] [%] | remaining binding at 1 µM [7] [%] | remaining binding at 1 µM [8] [%]
Cc1ccc(C(=O)Nc2ccc(CN3CCN(C)CC3)c(C(F)(F)F)c2)cc1C#Cc1cnc2c(Nc3cnn(C)c3)cccn12 [Example 1, 4-methyl-3-((8-((1-methyl-1H-pyrazol-4-yl)amino)imidazo[1,2-a]pyridin-3-yl)ethynyl)-N-(4-((4-methylpiperazin-1-yl)methyl)-3-(trifluoromethyl)phenyl)benzamide] | 0 | 86 | 64 | 89 | 98 | 0 | 93 | 87
Cc1cn(-c2cc(NC(=O)c3ccc(C)c(C#Cc4cnc5c(Nc6cnn(C)c6)cccn45)c3)cc(C(F)(F)F)c2)cn1 [Example 12, 4-methyl-N-(3-(4-methyl-1H-imidazol-1-yl)-5-(trifluoromethyl)phenyl)-3-((8-((1-methyl-1H-pyrazol-4-yl)amino)imidazo[1,2-a]pyridin-3-yl)ethynyl)benzamide] | 1 | 89 | 54 | 95 | 85 | 5 | 75 | 100
Cc1ccc(NC(=O)C2(C(=O)Nc3ccc(F)cc3)CC2)cc1C#Cc1cnc2c(Nc3cnn(C(C)C)c3)cccn12 [Example 78] | 0 | 100 | 100 | 100 | 100 | 11 | 96 | 93
